According to patent publication US8901118B2, “Compounds and methods for kinase modulation, and indications therefor” (Plexxikon Inc., priority 2010, dated 2014):
pIC50: −log10 of the molar value. One block for each compound: values may come before it.

Columns and labels:
Fms kinase = Fms kinase (Homo sapiens, UniProt P07333); assay: Fms kinase biochemical activity assay (AlphaScreen, biotin-(E4Y)10 phosphorylation); conditions: 100 μM ATP; read-out: Biochemical Inhibition IC50 Fms
In short: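 AlphaScreen read-out (PY20 acceptor, streptavidin donor beads, EDTA stop) of biotin-(E4Y)10 phosphorylation, with IC50 taken from the concentration–signal curve. Reaction: 30 nM substrate, 100 μM ATP, 1 ng/well Fms, Hepes pH 7.5 with Mg2+/Mn2+, 5% DMSO, 20 min at 30 °C.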

CYP2D6 = CYP2D6 (Homo sapiens, UniProt P10635); assay: CYP2D6 inhibition (fluorescent substrate AMMC); assay type: in vitro ADME; conditions: read-out: Cyp IC50 2D6
Sequence of CYP2D6 (P10635 whole entry): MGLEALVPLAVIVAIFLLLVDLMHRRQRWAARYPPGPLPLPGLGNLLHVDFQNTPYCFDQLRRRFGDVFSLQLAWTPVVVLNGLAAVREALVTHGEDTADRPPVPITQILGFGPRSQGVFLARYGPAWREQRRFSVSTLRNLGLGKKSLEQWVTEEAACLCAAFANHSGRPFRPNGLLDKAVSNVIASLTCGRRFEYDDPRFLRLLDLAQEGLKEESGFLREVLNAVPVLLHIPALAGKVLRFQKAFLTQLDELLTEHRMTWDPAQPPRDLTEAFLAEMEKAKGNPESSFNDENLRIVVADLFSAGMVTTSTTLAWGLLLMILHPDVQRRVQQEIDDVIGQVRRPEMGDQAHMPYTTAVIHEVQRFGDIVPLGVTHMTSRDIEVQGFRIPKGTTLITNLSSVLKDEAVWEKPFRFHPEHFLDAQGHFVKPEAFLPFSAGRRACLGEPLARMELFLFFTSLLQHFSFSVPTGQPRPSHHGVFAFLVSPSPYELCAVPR
In short: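 Test compound titrated 1:1 across ten concentrations; metabolite fluorescence measured after 37 °C incubation of 15 min (CYP1A2), 30 min (CYP2C19, CYP2D6) or 45 min (CYP2C9). IC50 from signal versus concentration.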

Sequence of Fms kinase (P07333 20-972): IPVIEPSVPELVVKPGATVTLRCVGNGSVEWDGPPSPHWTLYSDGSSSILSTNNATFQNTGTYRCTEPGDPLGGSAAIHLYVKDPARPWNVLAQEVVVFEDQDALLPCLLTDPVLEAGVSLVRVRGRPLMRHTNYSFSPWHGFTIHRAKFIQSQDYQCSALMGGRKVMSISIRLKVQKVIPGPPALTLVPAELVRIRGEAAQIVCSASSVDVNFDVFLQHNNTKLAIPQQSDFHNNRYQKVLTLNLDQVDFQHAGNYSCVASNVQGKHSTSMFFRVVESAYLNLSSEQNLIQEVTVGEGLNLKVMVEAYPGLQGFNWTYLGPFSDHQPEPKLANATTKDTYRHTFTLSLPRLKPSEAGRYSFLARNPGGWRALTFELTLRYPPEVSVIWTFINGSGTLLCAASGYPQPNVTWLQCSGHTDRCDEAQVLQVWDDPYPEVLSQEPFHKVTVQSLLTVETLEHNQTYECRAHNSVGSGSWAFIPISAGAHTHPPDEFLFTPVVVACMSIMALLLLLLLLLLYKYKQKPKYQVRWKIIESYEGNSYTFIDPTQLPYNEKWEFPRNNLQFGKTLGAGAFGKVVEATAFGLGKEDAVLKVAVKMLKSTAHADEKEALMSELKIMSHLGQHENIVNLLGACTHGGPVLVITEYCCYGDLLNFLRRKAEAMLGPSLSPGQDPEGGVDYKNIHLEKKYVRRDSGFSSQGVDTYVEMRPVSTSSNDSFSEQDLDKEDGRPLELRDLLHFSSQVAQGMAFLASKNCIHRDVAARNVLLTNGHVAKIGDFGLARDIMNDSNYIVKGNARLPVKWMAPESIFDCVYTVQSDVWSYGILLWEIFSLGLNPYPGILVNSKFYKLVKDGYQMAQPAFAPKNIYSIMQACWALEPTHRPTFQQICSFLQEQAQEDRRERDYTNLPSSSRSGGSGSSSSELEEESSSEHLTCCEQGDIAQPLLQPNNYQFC

SMILES: Clc1cnc2[nH]cc(Cc3cnc(NC4CCCCC4)nc3)c2c1 [Compound P-3001, [5-(5-chloro-1H-pyrrolo[2,3-b]pyridin-3-ylmethyl)-pyrimidin-2-yl]-cyclohexyl-amine]
pIC50 (Fms kinase): > 7.00 | pIC50 (CYP2D6): < 5.00

SMILES: Clc1cnc2[nH]cc(Cc3cnc(NC4CCCC4)nc3)c2c1 [Compound P-3003, [5-(5-Chloro-1H-pyrrolo[2,3-b]pyridin-3-ylmethyl)-pyrimidin-2-yl]-cyclopentyl-amine]
pIC50 (Fms kinase): > 6.00

SMILES: FC1(F)CCC(Nc2ncc(Cc3c[nH]c4ncc(Cl)cc34)cn2)CC1 [Compound P-3004]
pIC50 (Fms kinase): > 8.00 | pIC50 (CYP2D6): < 5.00

SMILES: Clc1cnc2[nH]cc(Cc3cnc(NC4CC4)nc3)c2c1 [Compound P-3005, [5-(5-Chloro-1H-pyrrolo[2,3-b]pyridin-3-ylmethyl)-pyrimidin-2-yl]-cyclopropyl-amine]
pIC50 (Fms kinase): > 6.00

SMILES: Clc1cnc2[nH]cc(Cc3cnc(NC4CCCCCC4)nc3)c2c1 [Compound P-3006, [5-(5-Chloro-1H-pyrrolo[2,3-b]pyridin-3-ylmethyl)-pyrimidin-2-yl]-cycloheptyl-amine]
pIC50 (Fms kinase): > 8.00 | pIC50 (CYP2D6): < 5.00

SMILES: COc1ccccc1Nc1ncc(Cc2c[nH]c3ncc(Cl)cc23)cn1 [Compound P-3016, [5-(5-Chloro-1H-pyrrolo[2,3-b]pyridin-3-ylmethyl)-pyrimidin-2-yl]-(2-methoxy-phenyl)-amine]
pIC50 (Fms kinase): > 7.00

SMILES: Cc1cnc2[nH]cc(Cc3cnc(Nc4cc(-c5ccc(F)cc5)n[nH]4)nc3)c2c1 [Compound P-3028, [5-(4-Fluoro-phenyl)-2H-pyrazol-3-yl]-[5-(5-methyl-1H-pyrrolo[2,3-b]pyridin-3-ylmethyl)-pyrimidin-2-yl]-amine]
pIC50 (Fms kinase): < 6.00

SMILES: Cc1cnc2[nH]cc(Cc3cnc(Nc4cc(C(C)(C)C)n[nH]4)nc3)c2c1 [Compound P-3029, (5-tert-Butyl-2H-pyrazol-3-yl)-[5-(5-methyl-1H-pyrrolo[2,3-b]pyridin-3-ylmethyl)-pyrimidin-2-yl]-amine]
pIC50 (Fms kinase): > 7.00

SMILES: Cc1cnc2[nH]cc(Cc3cnc(Nc4cc(C5CC5)n[nH]4)nc3)c2c1 [Compound P-3032, (5-Cyclopropyl-2H-pyrazol-3-yl)-[5-(5-methyl-1H-pyrrolo[2,3-b]pyridin-3-ylmethyl)-pyrimidin-2-yl]-amine]
pIC50 (Fms kinase): < 6.00

SMILES: Cc1cnc2[nH]cc(Cc3cnc(Nc4cc(C(F)(F)F)n[nH]4)nc3)c2c1 [Compound P-3037, [5-(5-Methyl-1H-pyrrolo[2,3-b]pyridin-3-ylmethyl)-pyrimidin-2-yl]-(5-trifluoromethyl-2H-pyrazol-3-yl)-amine]
pIC50 (Fms kinase): < 6.00

SMILES: Cc1cnc2[nH]cc(Cc3cnc(Nc4cc(OC(C)C)n[nH]4)nc3)c2c1 [Compound P-3038, (5-Isopropoxy-2H-pyrazol-3-yl)-[5-(5-methyl-1H-pyrrolo[2,3-b]pyridin-3-ylmethyl)-pyrimidin-2-yl]-amine]
pIC50 (Fms kinase): > 6.00

SMILES: Cc1ccc(Nc2ccc(Cc3c[nH]c4ncc(Cl)cc34)c(F)n2)cn1 [Compound P-3042, [5-(5-Chloro-1H-pyrrolo[2,3-b]pyridin-3-ylmethyl)-6-fluoro-pyridin-2-yl]-(6-methyl-pyridin-3-yl)-amine]
pIC50 (Fms kinase): > 8.00

SMILES: CCOc1ccc(Nc2ccc(C(=O)c3c[nH]c4ncc(C)cc34)c(F)n2)cn1 [Compound P-3045, [6-(6-ethoxy-pyridin-3-ylamino)-2-fluoro-pyridin-3-yl]-(5-methyl-1H-pyrrolo[2,3-b]pyridin-3-yl)-methanone]
pIC50 (Fms kinase): > 8.00

SMILES: CCOc1ncnc2[nH]cc(Cc3ccc(Nc4ccc(Br)nc4)nc3F)c12 [Compound P-4020, (6-Bromo-pyridin-3-yl)-[5-(4-ethoxy-7H-pyrrolo[2,3-d]pyrimidin-5-ylmethyl)-6-fluoro-pyridin-2-yl]-amine]
pIC50 (Fms kinase): > 8.00

SMILES: CCOc1ncnc2[nH]cc(Cc3ccc(Nc4cccnc4)nc3F)c12 [Compound P-4021, [5-(4-Ethoxy-7H-pyrrolo[2,3-d]pyrimidin-5-ylmethyl)-6-fluoro-pyridin-2-yl]-pyridin-3-yl-amine]
pIC50 (Fms kinase): > 7.00

SMILES: CCOc1ccc(Nc2ccc(Cc3c[nH]c4ncnc(C5CC5)c34)c(F)n2)cn1 [Compound P-4026, [5-(4-Cyclopropyl-7H-pyrrolo[2,3-d]pyrimidin-5-ylmethyl)-6-fluoro-pyridin-2-yl]-(6-ethoxy-pyridin-3-yl)-amine]
pIC50 (Fms kinase): > 8.00

SMILES: CCOc1ccc(Nc2ccc(C(=O)c3c[nH]c4ncnc(C5CC5)c34)c(F)n2)cn1 [Compound P-4027, (4-Cyclopropyl-7H-pyrrolo[2,3-d]pyrimidin-5-yl)-[6-(6-ethoxy-pyridin-3-ylamino)-2-fluoro-pyridin-3-yl]-methanone]
pIC50 (Fms kinase): > 7.00

SMILES: CCOc1ccc(Nc2ccc(C(=O)c3c[nH]c4ncnc(C)c34)c(F)n2)cn1 [Compound P-4032, [6-(6-Ethoxy-pyridin-3-ylamino)-2-fluoro-pyridin-3-yl]-(4-methyl-7H-pyrrolo[2,3-d]pyrimidin-5-yl)-methanone]
pIC50 (Fms kinase): > 7.00

SMILES: Cc1cncc(Nc2ccc(Cc3c[nH]c4ncnc(C5CC5)c34)c(F)n2)c1 [Compound P-4038, [5-(4-Cyclopropyl-7H-pyrrolo[2,3-d]pyrimidin-5-ylmethyl)-6-fluoro-pyridin-2-yl]-(5-methyl-pyridin-3-yl)-amine]
pIC50 (Fms kinase): > 7.00

SMILES: Cc1cncc(Nc2ccc(C(=O)c3c[nH]c4ncnc(C5CC5)c34)c(F)n2)c1 [Compound P-4039, (4-Cyclopropyl-7H-pyrrolo[2,3-d]pyrimidin-5-yl)-[2-fluoro-6-(5-methyl-pyridin-3-ylamino)-pyridin-3-yl]-methanone]
pIC50 (Fms kinase): > 6.00

Second part, the compound after the results:

pIC50 (Fms kinase): > 7.00
SMILES: Fc1cccc(Nc2ncc(Cc3c[nH]c4ncc(Cl)cc34)cn2)c1 [Compound P-3017, [5-(5-Chloro-1H-pyrrolo[2,3-b]pyridin-3-ylmethyl)-pyrimidin-2-yl]-(3-fluoro-phenyl)-amine]

pIC50 (Fms kinase): > 8.00
SMILES: COc1ccc(Nc2ncc(Cc3c[nH]c4ncc(C)cc34)cn2)cn1 [Compound P-3020, (6-Methoxy-pyridin-3-yl)-[5-(5-methyl-1H-pyrrolo[2,3-b]pyridin-3-ylmethyl)-pyrimidin-2-yl]-amine]

pIC50 (Fms kinase): > 8.00
SMILES: COc1ccc(Nc2ncc(Cc3c[nH]c4ncc(C)cc34)cn2)cc1 [Compound P-3021, (4-Methoxy-phenyl)-[5-(5-methyl-1H-pyrrolo[2,3-b]pyridin-3-ylmethyl)-pyrimidin-2-yl]-amine]

pIC50 (Fms kinase): > 7.00
SMILES: COc1cc(Nc2ncc(Cc3c[nH]c4ncc(C)cc34)cn2)ccc1F [Compound P-3022, (4-Fluoro-3-methoxy-phenyl)-[5-(5-methyl-1H-pyrrolo[2,3-b]pyridin-3-ylmethyl)-pyrimidin-2-yl]-amine]

pIC50 (Fms kinase): > 7.00
SMILES: COc1ccc(Nc2ncc(Cc3c[nH]c4ncc(C)cc34)cn2)cc1F [Compound P-3023, (3-Fluoro-4-methoxy-phenyl)-[5-(5-methyl-1H-pyrrolo[2,3-b]pyridin-3-ylmethyl)-pyrimidin-2-yl]-amine]

pIC50 (Fms kinase): > 7.00
SMILES: CCCOc1ccc(Nc2ncc(Cc3c[nH]c4ncc(C)cc34)cn2)cc1 [Compound P-3024, [5-(5-Methyl-1H-pyrrolo[2,3-b]pyridin-3-ylmethyl)-pyrimidin-2-yl]-(4-propoxy-phenyl)-amine]

pIC50 (Fms kinase): > 7.00
SMILES: CCc1ccc(Nc2ncc(Cc3c[nH]c4ncc(C)cc34)cn2)cc1 [Compound P-3025, (4-Ethyl-phenyl)-[5-(5-methyl-1H-pyrrolo[2,3-b]pyridin-3-ylmethyl)-pyrimidin-2-yl]-amine]

pIC50 (Fms kinase): > 8.00
SMILES: CCOc1ccc(Nc2ncc(Cc3c[nH]c4ncc(C)cc34)cn2)cc1 [Compound P-3026, (4-Ethoxy-phenyl)-[5-(5-methyl-1H-pyrrolo[2,3-b]pyridin-3-ylmethyl)-pyrimidin-2-yl]-amine]

pIC50 (Fms kinase): > 8.00
SMILES: CCOc1ccc(Nc2ncc(Cc3c[nH]c4ncc(C)cc34)cn2)cn1 [Compound P-3027, (6-Ethoxy-pyridin-3-yl)-[5-(5-methyl-1H-pyrrolo[2,3-b]pyridin-3-ylmethyl)-pyrimidin-2-yl]-amine]

pIC50 (Fms kinase): > 7.00
SMILES: Cc1cnc2[nH]cc(Cc3cnc(Nc4ccc(C(C)(C)C)cc4)nc3)c2c1 [Compound P-3030, (4-tert-Butyl-phenyl)-[5-(5-methyl-1H-pyrrolo[2,3-b]pyridin-3-ylmethyl)-pyrimidin-2-yl]-amine amine]

pIC50 (Fms kinase): > 6.00
SMILES: Cc1cnc2[nH]cc(Cc3cnc(Nc4ccc(C(O)(C(F)(F)F)C(F)(F)F)cc4)nc3)c2c1 [Compound P-3031, 1,1,1,3,3,3-Hexafluoro-2-{4-[5-(5-methyl-1H-pyrrolo[2,3-b]pyridin-3-ylmethyl)-pyrimidin-2-ylamino]-phenyl}-propan-2-ol]

pIC50 (Fms kinase): > 7.00
SMILES: CSc1ccc(Nc2ncc(Cc3c[nH]c4ncc(C)cc34)cn2)cc1 [Compound P-3033, [5-(5-Methyl-1H-pyrrolo[2,3-b]pyridin-3-ylmethyl)-pyrimidin-2-yl]-(4-methylsulfanyl-phenyl)-amine]

pIC50 (Fms kinase): > 7.00
SMILES: Cc1cnc2[nH]cc(Cc3cnc(Nc4ccc(S(C)(=O)=O)cc4)nc3)c2c1 [Compound P-3034, (4-Methanesulfonyl-phenyl)-[5-(5-methyl-1H-pyrrolo[2,3-b]pyridin-3-ylmethyl)-pyrimidin-2-yl]-amine]

pIC50 (Fms kinase): > 6.00
SMILES: CCn1ccc(Nc2ncc(Cc3c[nH]c4ncc(C)cc34)cn2)n1 [Compound P-3035, (1-Ethyl-1H-pyrazol-3-yl)-[5-(5-methyl-1H-pyrrolo[2,3-b]pyridin-3-ylmethyl)-pyrimidin-2-yl]-amine]

pIC50 (Fms kinase): > 8.00
SMILES: CCn1cc(Nc2ncc(Cc3c[nH]c4ncc(C)cc34)cn2)cn1 [Compound P-3036, (1-Ethyl-1H-pyrazol-4-yl)-[5-(5-methyl-1H-pyrrolo[2,3-b]pyridin-3-ylmethyl)-pyrimidin-2-yl]-amine]
